What all share (assay type): cell-based
In assay [1] the test system is thoracic aorta rings of a Wistar rat. Nature of the assay: Vascular protective effects with respect to endothelial dysfunction caused by an inhibitor of NOS (ACh relaxation of aortic rings in presence of LNA). As to conditions: LNA 3×10^−7M, difference in maximum ACh relaxation with/without product. The protocol: Under standard in vitro conditions, relaxation of aortic rings caused by acetylcholine (ACh), which relaxation is entirely dependent on the presence of endothelium, is the reflection of the production of NO (stimulated by ACh), which by diffusing to smooth muscle cells brings about arterial relaxation (Nature, 1980, 288, 373). The compounds of the invention were tested in respect of two models involving two different mechanisms implicated in the endothelial dysfunction observed in pathology: • the first model consists of causing inhibition of the relaxation due to ACh by blocking the enzymatic activity (endothelial NOS) responsible for the production of NO; • the second model consists of causing oxidative stress in vitro using an enzymatic system that generates O2^− (xanthine oxidase—XO and hypoxanthine—Hypo).
The thoracic aorta of a Wistar rat (325-375 g), anaesthetised by the intraperitoneal route using pentobarbital sodium (30 mg/kg), is removed and dissected into rings having a length of 3 mm. Each ring is suspended from an isometric tension sensor connected to a recording system and the initial tension applied is 2.5 g. The physiological solution used, which is thermostatically maintained at 37° C. and oxygenated (95% O2+5% CO2), comprises (in mM): NaCl 112.0; KCl 5.0; CaCl2 2.5; KH2PO4 1.0; MgSO4 1.2; NaHCO3 25.0; glucose 11.5; Ca-EDTA 0.016.
After a 90-minute stabilisation period, the preparations are contracted using phenylephrine (PHE 10^−6M) and relaxed by adding 10^−5M of acetylcholine in order to verify the integrity of the endothelial layer. If that is confirmed, the preparations are rinsed and a concentration of the product under test is added to the medium followed by 3×10^−7M of N^G-nitro-L-arginine (LNA). The preparations are again contracted using phenylephrine and, after 30 minutes, the relaxations due to acetylcholine (ACh-10^−8M to 10^−5M) are assessed in the presence of indomethacin (10^−5M).
The relaxation values are expressed as a percentage relative to the maximum contraction caused by PHE. […]

The subject of the next assay is rat aortic rings. In words: Assessment of aortic production of cGMP stimulated by ACh in the presence of LNA (radioimmunoassay). As to conditions: compound at 10^−7M, 30-minute incubation; ACh 10^−5M 1 minute; LNA 3×10^−6M; isobutylmethylxanthine 10^−5M. The protocol: By diffusing to the smooth muscle cells, the NO produced by the endothelial cells activates soluble guanylate cyclase, which brings about an increase in cyclic GMP, which is responsible for relaxation.
The rat aortic rings are prepared as previously. The effects of 30-minute incubation of compounds of the invention at different concentrations are assessed on the production of cGMP stimulated by ACh (10^−5M-1 minute) in the presence of LNA (3×10^−6M). The said experiments are carried out in the presence of isobutylmethylxanthine (10^−5M) in order to avoid degradation of the cGMP by phosphodiesterases. The rings are frozen in liquid nitrogen and maintained at −80° C. until the assay is carried out. The cGMP content is assessed by radioimmunoassay and expressed in relation to the amount of proteins contained in the tissue (assay by the Bradford method).

For assay [2], the system named is aortic rings of New Zealand rabbits. Nature of the assay: Protective vascular effects with respect to endothelial dysfunction caused by a system generating O2^− (XO-Hypo), aortic rings. As to conditions: compound at 3×10^−8M; rabbit aortic rings; XO 3 mU/ml, Hypo 10^−4M.

In the case of `O=C(NCCN1CCC(COc2ccccc2)CC1)N1CCc2ccccc21` [Example 35, N-{2-[4-(Phenoxymethyl)-1-piperidyl]ethyl}-1-indolinecarboxamide], the results for the “inhibition of the endothelial dysfunction caused by LNA” value in assay [1] (compound at 3×10^−8M), in assay [1] (compound at 10^−7M) and in assay [1] (compound at 10^−8M) were 26%, 29% and 8%, respectively. Besides, in the assay with rat aortic rings, the “increase in the production of cGMP stimulated by ACh in the presence of LNA” value was found to be 28.1%. Further, the “inhibition of the endothelial dysfunction caused by the XO-Hypo combination” value in assay [2] came out at 17%.
